# Experimental data taken from patent US9115147B2, “Tricyclic derivatives and their pharmaceutical use and compositions” (Cephalon, Inc., priority 2009, dated 2015).
# Biological target: T1, human 5-HT6 receptor (Homo sapiens, UniProt P50406)
# T1 construct: host or cells: CHO-K1 cells, stably transfected; membranes prepared in house
# Assay: Human 5-HT6 Receptor Binding Assay ([3H]LSD, scintillation beads)
# Conditions: Human 5-HT6 Ki (nM), actual data; membranes of CHO-K1 cells with recombinant human 5-HT6 receptor, 4 nM [3H]LSD
# Experimental: Human 5-HT6 Receptor Binding Assay
# Membranes were prepared from CHO-K1 cells stably transfected with the human 5-HT6 receptor (Euroscreen; ES-316-C). The cells were grown in Gibco Advanced DMEM-F12 (Cat#12634010) containing 2% dialyzed FBS (Hyclone Cat#SH30079.03). The cells were harvested in phosphate buffered saline (PBS) containing 0.1 mM EDTA and pelleted by centrifugation (1000×g), the supernatant was discarded and the pellets were stored at −80° C. prior to membrane preparation. Membranes were prepared as previously described (J Bio Chem. 1992, 267 (14) 9844-51). Briefly, frozen cell pellet was resuspended in a lysis buffer containing 5 mM Tris-HCl (pH 7.5), 5 mM EDTA and 1 complete EDTA-free protease inhibitor tablet (Roche Applied Science, Indianapolis, Ind.) per 50 mL buffer, and homogenized with a tissue homogenizer. The cell lysate was then centrifuged at 40,000×g for 30 min at 4° C. to collect the membranes. The membrane pellets were washed in membrane buffer (50 mM Tris-HCl (pH 7.5), 0.6 mM EDTA, 5 mM MgCl2, 1 complete EDTA-free protease inhibitor tablet per 50 mL buffer) using a tissue homogenizer. The membranes were centrifuged at 40,000×g for 30 min at 4° C. and the pellets were resuspended in membrane buffer containing 250 mM sucrose, and protein concentration was determined using the Coomassie Plus kit (Pierce Biotechnology, Rockford, Ill.).
# Membranes prepared from cells expressing recombinant human 5-HT6 receptor (h5-HT6) were resuspended in assay buffer containing 50 mM Tris HCl, (pH7.4), 4 mM CaCl2, 10 μg/mL saponin, and 0.1% (w/v) ascorbic acid. Membranes were preincubated using 1.75 μg membrane protein and 0.25 mg FlashBlue scintillation beads (PerkinElmer catalogue #FB001) per well at 4° C. for 30 min. […] Test compounds or assay controls for total and non-specific binding were diluted in DMSO as 100× solutions and serially diluted by half log concentrations on a Perkin Elmer JANUS Automated Workstation. Serotonin (10 μM final concentration) was used to determine non-specific binding in the assay. Plates were read using the Microbeta Trilux 1450 LSC and luminescence counter. Data were analyzed by nonlinear […] using the dose-response equation (variable slope) to calculate IC50 in XLfit4 (ID Business Solutions Inc.): y=(Bottom+((Top−Bottom)/(1+((IC50/x)^Hill slope))))
# Ki value was then calculated according to the Cheng-Prusoff method using the equation below (Cheng and Prusoff, 1973): Ki, app=IC50/(1+([radioligand]/Kd))
# T1 sequence (P50406 whole entry): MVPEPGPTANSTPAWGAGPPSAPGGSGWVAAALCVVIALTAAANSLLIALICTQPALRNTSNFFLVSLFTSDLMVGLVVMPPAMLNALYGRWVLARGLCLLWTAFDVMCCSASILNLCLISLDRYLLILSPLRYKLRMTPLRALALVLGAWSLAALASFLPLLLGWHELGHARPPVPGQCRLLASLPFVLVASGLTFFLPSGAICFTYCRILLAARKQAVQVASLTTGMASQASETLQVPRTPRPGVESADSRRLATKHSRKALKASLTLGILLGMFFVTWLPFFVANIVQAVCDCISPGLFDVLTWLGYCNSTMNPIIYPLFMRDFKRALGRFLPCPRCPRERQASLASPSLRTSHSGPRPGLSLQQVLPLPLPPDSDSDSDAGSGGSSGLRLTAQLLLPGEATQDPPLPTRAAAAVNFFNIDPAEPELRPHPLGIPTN
row,Structure (SMILES),Ki [nM]
1,"COc1cncc(S(=O)(=O)c2ccc3c(c2)OCC2NCCC32)c1 (racemic) [Example 110, 7-[(5-methoxypyridin-3-yl)sulfonyl]-1,2,3,3a,4,9b-hexahydrochromeno[3,4-b]pyrrole]",98.4
2,"Cc1cccc([S+]([O-])c2ccc3c(c2)OCC2NCCC32)n1 (single isomer, unassigned) [Example 22, 7-[(6-methylpyridin-2-yl)sulfinyl]-1,2,3,3a,4,9b-hexahydrochromeno[3,4-b]pyrrole]",51.5

# Same assay, conditions: Human 5-HT6 Ki app (nM), membranes of CHO-K1 cells with recombinant human 5-HT6 receptor, 4 nM [3H]LSD, Cheng-Prusoff
row,Structure (SMILES),Ki [nM]
1,"COc1cncc(S(=O)(=O)c2ccc3c(c2)OCC2NCCC32)c1 (racemic) [Example 110, 7-[(5-methoxypyridin-3-yl)sulfonyl]-1,2,3,3a,4,9b-hexahydrochromeno[3,4-b]pyrrole]",< 500
2,"O=S(=O)(c1cncc(Cl)c1)c1ccc2c(c1)OCC1NCCC21 (racemic) [Example 111, 7-[(5-chloropyridin-3-yl)sulfonyl]-1,2,3,3a,4,9b-hexahydrochromeno[3,4-b]pyrrole]",< 500
3,"Cc1cccc([S+]([O-])c2ccc3c(c2)OCC2NCCC32)n1 (single isomer, unassigned) [Example 22, 7-[(6-methylpyridin-2-yl)sulfinyl]-1,2,3,3a,4,9b-hexahydrochromeno[3,4-b]pyrrole]",< 500

# Same assay, conditions: actual data; membranes of CHO-K1 cells with recombinant human 5-HT6 receptor, 4 nM [3H]LSD; read-out: Human 5-HT6 Ki
row,Ki [nM],Structure (SMILES)
1,2.5,"O=S(=O)(c1ccccc1)c1ccc2c(c1)OCC1NCCC21 (racemic) [Example 104, 7-(phenylsulfonyl)-1,2,3,3a,4,9b-hexahydrochromeno[3,4-b]pyrrole]"

# Same assay, conditions: membranes of CHO-K1 cells with recombinant human 5-HT6 receptor, 4 nM [3H]LSD, Cheng-Prusoff; read-out: Human 5-HT6 Ki app
row,Ki [nM],Structure (SMILES)
1,< 500,"[O-][S+](c1ccccc1)c1ccc2c(c1)OCC1NCCC21 (racemic) [Example 25, 7-(Phenylsulfinyl)-1,2,3,3a,4,9b-hexahydrochromeno[3,4-b]pyrrole]"
2,> 1000,"[O-][S+](c1ccccc1)c1ccc2c(c1)OCC1NCCC21 (racemic) [Example 26, 7-(Phenylsulfinyl)-1,2,3,3a,4,9b-hexahydrochromeno[3,4-b]pyrrole]"
3,< 500,"O=S(=O)(c1ccccc1)c1ccc2c(c1)OCC1NCCC21 (racemic) [Example 104, 7-(phenylsulfonyl)-1,2,3,3a,4,9b-hexahydrochromeno[3,4-b]pyrrole]"
4,< 500,"O=S(=O)(c1cc(F)cc(F)c1)c1ccc2c(c1)OCC1NCCC21 (racemic) [Example 105, 7-[(3,5-difluorophenyl)sulfonyl]-1,2,3,3a,4,9b-hexahydrochromeno[3,4-b]pyrrole]"
5,< 500,"[O-][S+](c1ccccc1)c1ccc2c(c1)OCC1NCCC21 (racemic) [Example 106, 7-(phenylsulfinyl)-1,2,3,3a,4,9b-hexahydrochromeno[3,4-b]pyrrole]"
6,< 500,"CC(C)Oc1cccc(S(=O)(=O)c2ccc3c(c2)OCC2NCCC32)c1 (racemic) [Example 107, 7-{[3-(propan-2-yloxy)phenyl]sulfonyl}-1,2,3,3a,4,9b-hexahydrochromeno[3,4-b]pyrrole]"
7,< 500,"COc1cc(F)cc(S(=O)(=O)c2ccc3c(c2)OCC2NCCC32)c1 (racemic) [Example 109, 7-[(3-fluoro-5-methoxyphenyl)sulfonyl]-1,2,3,3a,4,9b-hexahydrochromeno[3,4-b]pyrrole]"
8,< 500,"O=S(=O)(c1cccc(F)c1)c1ccc2c(c1)OCC1NCCC21 (single isomer, unassigned) [Example 1, 7-[(3-fluorophenyl)sulfonyl]-1,2,3,3a,4,9b-hexahydrochromeno[3,4-b]pyrrole]"
9,< 500,"O=S(=O)(c1cccc(Cl)c1)c1ccc2c(c1)OCC1NCCC21 (single isomer, unassigned) [Example 2, 7-[(3-chlorophenyl)sulfonyl]-1,2,3,3a,4,9b-hexahydrochromeno[3,4-b]pyrrole]"
10,< 500,"O=S(=O)(c1cc(Cl)cc(Cl)c1)c1ccc2c(c1)OCC1NCCC21 (single isomer, unassigned) [Example 3, 7-[(3,5-dichlorophenyl)sulfonyl]-1,2,3,3a,4,9b-hexahydrochromeno[3,4-b]pyrrole]"
11,< 500,"O=S(=O)(c1ccc(F)cc1)c1ccc2c(c1)OCC1NCCC21 (single isomer, unassigned) [Example 4, 7-[(4-fluorophenyl)sulfonyl]-1,2,3,3a,4,9b-hexahydrochromeno[3,4-b]pyrrole]"
12,< 500,"O=S(=O)(c1cc(F)cc(Cl)c1)c1ccc2c(c1)OCC1NCCC21 (single isomer, unassigned) [Example 6, 7-[(3-chloro-5-fluorophenyl)sulfonyl]-1,2,3,3a,4,9b-hexahydrochromeno[3,4-b]pyrrole]"
13,< 500,"O=S(=O)(c1cccc(OC(F)(F)F)c1)c1ccc2c(c1)OCC1NCCC21 (single isomer, unassigned) [Example 7, 7-{[3-(trifluoromethoxy)phenyl]sulfonyl}-1,2,3,3a,4,9b-hexahydrochromeno[3,4-b]pyrrole]"
14,< 500,"O=S(=O)(c1cccc(C(F)(F)F)c1)c1ccc2c(c1)OCC1NCCC21 (single isomer, unassigned) [Example 8, 7-{[3-(trifluoromethyl)phenyl]sulfonyl}-1,2,3,3a,4,9b-hexahydrochromeno[3,4-b]pyrrole]"
15,< 500,"CC(C)Oc1cccc(S(=O)(=O)c2ccc3c(c2)OCC2NCCC32)c1 (single isomer, unassigned) [Example 9, 7-{[3-(propan-2-yloxy)phenyl]sulfonyl}-1,2,3,3a,4,9b-hexahydrochromeno[3,4-b]pyrrole]"
16,< 500,"O=S(=O)(c1cccc(F)c1)c1ccc2c(c1)OCC1NCCC21 (single isomer, unassigned) [Example 10, 7-[(3-fluorophenyl)sulfonyl]-1,2,3,3a,4,9b-hexahydrochromeno[3,4-b]pyrrole]"
17,< 500,"O=S(=O)(c1cccc(Cl)c1)c1ccc2c(c1)OCC1NCCC21 (single isomer, unassigned) [Example 11, 7-[(3-chlorophenyl)sulfonyl]-1,2,3,3a,4,9b-hexahydrochromeno[3,4-b]pyrrole]"
18,< 500,"O=S(=O)(c1cc(Cl)cc(Cl)c1)c1ccc2c(c1)OCC1NCCC21 (single isomer, unassigned) [Example 12, 7-[(3,5-dichlorophenyl)sulfonyl]-1,2,3,3a,4,9b-hexahydrochromeno[3,4-b]pyrrole]"
19,< 500,"O=S(=O)(c1ccc(F)cc1)c1ccc2c(c1)OCC1NCCC21 (single isomer, unassigned) [Example 13, 7-[(4-fluorophenyl)sulfonyl]-1,2,3,3a,4,9b-hexahydrochromeno[3,4-b]pyrrole]"
20,< 500,"O=S(=O)(c1cc(F)cc(F)c1)c1ccc2c(c1)OCC1NCCC21 (single isomer, unassigned) [Example 14, 7-[(3,5-difluorophenyl)sulfonyl]-1,2,3,3a,4,9b-hexahydrochromeno[3,4-b]pyrrole]"
21,< 500,"O=S(=O)(c1cc(F)cc(Cl)c1)c1ccc2c(c1)OCC1NCCC21 (single isomer, unassigned) [Example 15, 7-[(3-chloro-5-fluorophenyl)sulfonyl]-1,2,3,3a,4,9b-hexahydrochromeno[3,4-b]pyrrole]"
22,< 500,"O=S(=O)(c1cccc(OC(F)(F)F)c1)c1ccc2c(c1)OCC1NCCC21 (single isomer, unassigned) [Example 16, 7-{[3-(trifluoromethoxy)phenyl]sulfonyl}-1,2,3,3a,4,9b-hexahydrochromeno[3,4-b]pyrrole]"
23,< 500,"O=S(=O)(c1cccc(C(F)(F)F)c1)c1ccc2c(c1)OCC1NCCC21 (single isomer, unassigned) [Example 17, 7-{[3-(trifluoromethyl)phenyl]sulfonyl}-1,2,3,3a,4,9b-hexahydrochromeno[3,4-b]pyrrole]"
24,< 500,"CC(C)Oc1cccc(S(=O)(=O)c2ccc3c(c2)OCC2NCCC32)c1 (single isomer, unassigned) [Example 18, 7-{[3-(propan-2-yloxy)phenyl]sulfonyl}-1,2,3,3a,4,9b-hexahydrochromeno[3,4-b]pyrrole]"
25,< 500,"O=S(=O)(c1ccc2c(c1)OCC1NCCC21)c1cccc2ccccc12 (single isomer, unassigned) [Example 19, 7-(naphthalen-1-ylsulfonyl)-1,2,3,3a,4,9b-hexahydrochromeno[3,4-b]pyrrole]"
26,< 500,"O=S(=O)(c1ccc2c(c1)OCC1NCCC21)c1cccc2ccccc12 (single isomer, unassigned) [Example 20, 7-(naphthalen-1-ylsulfonyl)-1,2,3,3a,4,9b-hexahydrochromeno[3,4-b]pyrrole]"

row,Structure (SMILES),Ki [nM]
1,"Cc1cccc(Sc2ccc3c(c2)OCC2NCCC32)n1 (single isomer, unassigned) [Example 21, 7-[(6-methylpyridin-2-yl)sulfanyl]-1,2,3,3a,4,9b-hexahydrochromeno[3,4-b]pyrrole]",> 1000
